{"source": "BindingDB's records for patent US11198695", "about": "(SHIONOGI & CO., LTD., 2021)"}
{"target": "2-acylglycerol O-acyltransferase 2 (Homo sapiens, UniProt Q3SYC2)", "sequence (Q3SYC2 whole entry)": "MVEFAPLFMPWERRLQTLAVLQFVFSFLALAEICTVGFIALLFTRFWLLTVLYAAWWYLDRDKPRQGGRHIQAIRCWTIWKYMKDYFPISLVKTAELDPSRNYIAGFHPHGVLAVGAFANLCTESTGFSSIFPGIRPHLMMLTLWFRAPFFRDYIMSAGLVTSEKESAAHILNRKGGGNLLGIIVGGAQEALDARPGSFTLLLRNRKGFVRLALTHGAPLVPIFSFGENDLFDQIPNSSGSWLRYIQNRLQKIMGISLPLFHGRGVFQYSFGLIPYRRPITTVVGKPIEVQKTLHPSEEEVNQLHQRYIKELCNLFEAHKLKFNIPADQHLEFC", "assay": "Inhibitory Activity", "method": "Solutions of the compounds of the present invention in DMSO were each aliquoted into 0.2-μL portions in a 384-well polystyrene microplate produced by Corning Incorporated, and 5 μL of an enzyme solution prepared with an assay buffer (100 mmol/L phosphate buffer (pH 7.4) containing 2 mmol/L DTT) and 5 μL of a substrate solution (100 mmol/L phosphate buffer (pH 7.4), 30 μmol/L 2-Oleoylglycerol, 10 μmol/L Oleoyl-CoA) were added thereto, and the resultant was stirred and centrifuged, and incubated in a moist chamber at room temperature for 1 hour. After enzymatic reaction, 50 μL of a quenching solution (containing 0.2 μmol/L Diolein-d5, 0.4% formic acid, and 50% isopropanol) containing Internal Standard (IS) was added to terminate the reaction, and the resultant was sealed in a plate produced by Shimadzu GLC Ltd., and then stirred and centrifuged, and measurement was performed by using an electrospray ionization method with a RapidFire360 and Agilent 6550 Q-TOF mass spectrometer. Diolein as a reaction product (P) of 2-Oleoylglycerol as the substrate and an ammonium adduct ion of the IS were detected, and the peak intensity ratio, P/IS, was calculated from the peak heights to evaluate the inhibitory activity. Inhibitory activities with/without addition of enzyme were defined as Control (+)/Control (−), respectively, and the respective % inhibitions were defined as 0% inhibition and 100% inhibition. The inhibitory activity was calculated from formula below with TIBCO Spotfire (produced by TIBCO Software Inc.):Inhibitory activity (%)=[1−{Sample−Control(−)}/{Control(+)−Control(−)}]*100where Sample indicates a peak intensity ratio: P/IS, when the compound of the present invention was added.", "units": {"IC50": "nM"}}
{"smiles": "COc1ccc(-n2nc3c(c2NC(=O)CS(C)(=O)=O)C(=O)N[C@]2(CCc4cc(OCC(F)(F)F)ccc42)C3)cc1", "note": "[US11198695, Example I-268]", "IC50": 26}
{"smiles": "C#Cc1ccc(-n2nc3c(c2C(=O)NS(=O)(=O)C2CC2)C(=O)N[C@@]2(CCc4cc(OCC(F)(F)F)ccc42)C3)nc1", "note": "[US11198695, Example II-201]", "IC50": 12.1}
{"smiles": "CS(=N)(=O)CC(=O)Nc1c2c(nn1-c1ccc(C(F)F)nn1)C[C@]1(CCc3cc(OCC(F)(F)F)ccc31)NC2=O", "note": "(stereo partly drawn) [US11198695, Example II-281]", "IC50": "< 1"}
